Results: the supplement of paper PMC10307832

How the values were obtained:
Test in all cases: relative viability (nuclei count vs DMSO), 5 days (fraction); higher = more cells survive
[1] = compound: C=CCNC1=C2C[C@@H](C)C[C@H](OC)[C@H](O)[C@@H](C)/C=C(\C)[C@H](OC(N)=O)[C@@H](OC)/C=C\C=C(/C)C(=O)NC(=CC1=O)C2=O [17-AAG]
Outline: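 Only plates meeting two conditions passed: control CV below 25% and at least one doubling. Lung cancer cell lines, kept overnight at 37 °C in 1536-well plates, were pinned with five library-drug doses (not always all listed) √10 apart on vehicle-anchored plates and grown 5 days without medium change. A one-step fix, permeabilisation and Hoechst stain preceded 4× imaging and MetaXpress nuclear counting. Viability equals treated-well nuclei divided by vehicle-well nuclei, as the median over plates.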

[2] = compound: C=CCNC1=C2C[C@@H](C)C[C@H](OC)[C@H](O)[C@@H](C)/C=C(\C)[C@H](OC(N)=O)[C@@H](OC)/C=C\C=C(/C)C(=O)NC(=CC1=O)C2=O [17-AAG] + CC(=O)Nc1cccc(-n2c(=O)n(C3CC3)c(=O)c3c(Nc4ccc(I)cc4F)n(C)c(=O)c(C)c32)c1 [Trametinib] (partner 0.02 µM)
Outline: (§1)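 After 5 days of treatment, lung cancer cells in 1536-well plates were fixed and stained in a single step (final 0.05% Triton X-100, 1% formaldehyde, 1 ug/ml Hoechst) and their nuclei counted on 4× images. Treatment had been applied by pin tool the day after seeding as one drug alone or as a fixed anchor-drug dose with five library-drug doses (not always all listed) in √10 steps. Relative viability is the nuclei count of treated wells divided by that of vehicle wells, and values are medians of duplicate plates.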

[3] = compound: C=CCNC1=C2C[C@@H](C)C[C@H](OC)[C@H](O)[C@@H](C)/C=C(\C)[C@H](OC(N)=O)[C@@H](OC)/C=C\C=C(/C)C(=O)NC(=CC1=O)C2=O [17-AAG] + Cc1cc(Nc2cc(N3CCN(C)CC3)nc(Sc3ccc(NC(=O)C4CC4)cc3)n2)n[nH]1 [Tozasertib] (partner 0.1 µM)
Outline: as §1

[4] = compound: C=CCNC1=C2C[C@@H](C)C[C@H](OC)[C@H](O)[C@@H](C)/C=C(\C)[C@H](OC(N)=O)[C@@H](OC)/C=C\C=C(/C)C(=O)NC(=CC1=O)C2=O [17-AAG] + NC(=O)Nc1cc(-c2cccc(F)c2)sc1C(=O)N[C@H]1CCCNC1 [AZD7762] (partner 0.2 µM)
Outline: as §1

Cell Line	relative viability ([1]; 0.00128 µM)	relative viability ([1]; 0.004048 µM)	relative viability ([1]; 0.0128 µM)	relative viability ([1]; 0.04048 µM)	relative viability ([1]; 0.128 µM)	relative viability ([2]; first compound 0.00128 µM)	relative viability ([2]; first compound 0.004048 µM)	relative viability ([2]; first compound 0.0128 µM)	relative viability ([2]; first compound 0.04048 µM)	relative viability ([2]; first compound 0.128 µM)	relative viability ([3]; first compound 0.00128 µM)	relative viability ([3]; first compound 0.004048 µM)	relative viability ([3]; first compound 0.0128 µM)	relative viability ([3]; first compound 0.04048 µM)	relative viability ([3]; first compound 0.128 µM)	relative viability ([4]; first compound 0.00128 µM)	relative viability ([4]; first compound 0.004048 µM)	relative viability ([4]; first compound 0.0128 µM)	relative viability ([4]; first compound 0.04048 µM)	relative viability ([4]; first compound 0.128 µM)
H3255	0.995	0.973	0.948	0.313	0.243	0.597	0.556	0.544	0.31	0.21	0.957	0.496	0.612	0.234	0.228	0.876	1	0.674	0.252	0.245
EPLC-272H	1.02	0.968	0.663	0.159	0.104	0.278	0.268	0.229	0.169	0.135	0.331	0.329	0.482	0.379	0.143	0.208	0.3	0.207	0.13	0.101
RERF-LC-KJ	1.03	1.05	0.669	0.284	0.26	0.837	0.864	0.737	0.404	0.244	0.551	0.754	0.293	0.275	0.257	1	1.16	0.859	0.229	0.118
NCI-H1793	0.967	0.842	0.282	0.186	0.135	0.36	0.318	0.273	0.18	0.142	0.385	0.313	0.398	0.154	0.123	0.66	0.306	0.173	0.109	0.0863
EKVX	1	1.02	1.05	0.261	0.229	0.341	0.306	0.289	0.127	0.117	0.448	0.377	0.398	0.238	0.0984	0.817	0.726	0.669	0.435	0.162
ChaGo-K-1	0.961	0.966	0.877	0.463	0.307	0.918	0.873	0.767	0.857	0.735	0.215	0.249	0.279	0.217	0.205	0.843	0.871	0.861	0.449	0.217
NCI-H23	0.949	0.851	0.289	0.177	0.147	0.336	0.344	0.246	0.148	0.116	0.425	0.563	0.365	0.213	0.187	0.201	0.4	0.18	0.122	0.0996
EMC-BAC-2	1.13	0.986	0.889	0.396	0.362	0.946	0.821	0.765	0.335	0.235	0.286	0.297	0.347	0.26	0.226	1.17	1.15	0.735	0.598	0.287
LOU-NH91	0.928	0.819	0.571	0.435	0.354	0.795	0.747	0.584	0.434	0.387	0.663	0.475	0.39	0.327	0.307	0.765	0.71	0.444	0.382	0.347
LU99A	0.909	0.867	0.627	0.369	0.169	0.549	0.538	0.508	0.384	0.134	0.288	0.345	0.399	0.276	0.132	0.372	0.284	0.115	0.179	0.074
NCI-H1395	0.79	0.818	0.648	0.388	0.342	1.09	0.984	0.807	0.448	0.368	0.625	0.698	0.694	0.408	0.342	0.415	0.431	0.395	0.34	0.337
NCI-H520	1.01	0.974	0.566	0.193	0.185	0.706	0.673	0.468	0.154	0.129	0.453	0.47	0.457	0.253	0.24					
201T	0.953	0.976	0.936	0.425	0.316	0.778	0.729	0.688	0.702	0.682	0.988	0.915	0.872	0.891	0.388	0.626	0.543	0.459	0.258	0.261
NCI-H1944	0.863	0.915	0.896	0.251	0.178	0.452	0.368	0.379	0.24	0.155	0.239	0.248	0.219	0.213	0.138	0.497	0.488	0.237	0.155	0.138
NCI-H3122	0.99	0.867	0.29	0.155	0.134	0.23	0.283	0.173	0.177	0.106	0.473	0.187	0.0915	0.104	0.0922	0.93	0.873	0.214	0.161	0.108
